US20090252834A1, “Compositions comprising glucose anti-metabolites” (priority 2004, published 2009)

Key:
[1] = test system: isolated rat hepatocytes; conditions: cited from earlier work
[2] = test system: rodents; conditions: long-term; cited from earlier work
[3] = high doses; cited from earlier work
[4] = in contrast with 2-deoxy-D-glucose; cited from earlier work
[5] = test system: rats; conditions: cited from earlier work
[6] = injected into a rat; cited from earlier work
[7] = test system: rats; conditions: by injection, in rats; cited from earlier work
[8] = Pharmacokinetics of mannoheptulose, once daily in a nutritionally-balanced composition, adult Labrador Retrievers; type: in vivo, Labrador Retriever dogs
Protocol: The pharmacokinetics of mannoheptulose can be determined in six adult, male Labrador Retriever dogs fed a nutritionally-balanced composition providing mannoheptulose at levels of 0, 1 or 2 mg/kg of body weight of the dog. Mannoheptulose is provided as an enriched source of avocado extract in the 1 and 2 mg/kg diets. The mean age of the dogs is 4.2 years and the age ranges from 3.3 to 6.1 years. The average body weight of all dogs is 33 kg and the body weight ranges from 28 to 36 kg. Dogs are adapted for 14 days to a nutritionally-balanced control composition (Eukanuba Senior Maintenance Formula) containing no mannoheptulose, avocado extract or avocado meal (0 mg/kg mannoheptulose). The two compositions containing mannoheptulose are the nutritionally-balanced control composition formulated with avocado extract to provide a mannoheptulose dose of 1 or 2 mg/kg of body weight when fed to a dog. The amount of composition offered to the dogs is based on feeding guidelines for the control composition and the target weight range and body condition of the dogs. After 14 days, dogs are fed one of the three compositions for 9 days. On day 9, the dogs are fed their daily allotment of composition as a single meal at 0730. Dog 1 and dog 2 are fed the control composition containing 0 mg/kg mannoheptulose, dog 3 and dog 4 are fed the composition containing 1 mg/kg mannoheptulose, and dog 5 and dog 6 are fed the composition containing 2 mg/kg mannoheptulose. Pharmacokinetics of mannoheptulose following once daily administration of mannoheptulose in a nutritionally-balanced composition is determined by collecting serial blood samples (3 mL) from each dog on day 9 using a Vacutainer blood collection system and jugular venipuncture. Blood samples are collected at −30, 0, 30, 60, 90, 120, 240, 360, 480, 600, 720 and 1,440 minutes relative to each dog receiving their entire daily allotment of composition as a single meal. Plasma mannoheptulose concentrations are measured using high-performance liquid chromatography tandem mass spectrometry as described herein below.
A one-compartment model is used to calculate mannoheptulose pharmacokinetics based on plasma mannoheptulose levels following once daily oral administration of mannoheptulose in a nutritionally-balanced composition (PV(t)). The model is: PV(t)=dose/(a·BW)e^−kt where: a mannoheptulose pool size (dose/(enrichment at to)), BW=body weight, k=rate constant of elimination (In Et−1n E0)/−t, and t=time. Area under each plasma mannoheptulose curve is determined using a one-way, repeated measures analysis of variance (GraphPad Prism version 4.00 for Windows).
High performance liquid chromatography tandem mass spectrometry (HPLC/MS/MS) is utilized to determine the amount of mannoheptulose present in the plasma of adult dogs. D-mannoheptulose and its chemical analog internal standard (D7-glucose) are isolated from dog plasma by a protein precipitation procedure (described herein below) using a 96-well format. […] Detection and quantitation is by mass spectrometry (MS) operating under multiple reaction monitoring MS/MS conditions. Concentrations of D-mannoheptulose in dog plasma can be quantitated from approximately 20 to 5000 ng/mL. […] Specimen concentrations are determined by back-calculation using a weighted (1/x^2) linear regression of a calibration curve generated from prepared D-mannoheptulose calibration standards.

[9] = test system: older Labrador Retrievers; experiment: ADL-Jump (jumping over hurdles) of older dogs; type: in vivo, Labrador Retriever dogs; conditions: 2 mg/kg, across all four quarters
Protocol: (§1) A total of 39 older Labrador Retrievers are fed a nutritionally-balanced composition providing mannoheptulose at levels of 0 or 2 mg/kg of body weight of the dog. Average age of the dogs (12 neutered males, 27 spayed females) at the start of a 4-year study is 6.7 years with a range of 5.1 to 8.2 years of age for the youngest and oldest dog within the cohort, respectively. The 0 mg/kg composition is fed as a nutritionally-balanced control composition (Eukanuba Senior Maintenance Formula) and it contains no mannoheptulose, avocado extract or avocado meal. The 2 mg/kg composition is the nutritionally-balanced control composition formulated with avocado extract to provide mannoheptulose at a dose of 2 mg/kg body weight of the dog. The nutritionally-balanced composition containing 0 mg/kg mannoheptulose is referred to as Diet 1 within this Example. The nutritionally-balanced composition containing 2 mg/kg mannoheptulose is referred to as Diet 2 within this Example. […]
(§2) Shoulder height of each individual dog is measured using a tape measure and recorded. […]
(§3) The ADL-Table activity requires the dog to jump on to and down from the platform of four tables of graduated heights, starting with the lowest table height first. […] For both activities, dogs are scored for the number of attempts at each graduated height and the successful completion of each height. […]

[10] = Pharmacokinetics of mannoheptulose, twice daily in a nutritionally-balanced composition, older Labrador Retrievers; type: in vivo, Labrador Retriever dogs; conditions: 2 mg/kg; for half-life: female, Labrador Retriever, dog, plasma, oral
Protocol: The pharmacokinetics of mannoheptulose can be determined in ten adult, female Labrador Retriever dogs fed a nutritionally-balanced composition providing mannoheptulose at levels of 0 or 2 mg/kg of body weight of the dog. Mannoheptulose is provided as avocado extract in the 2 mg/kg diet. The mean age of the dogs is 7.1 years and the age ranges from 5.3 to 8.4 years. Dogs are age-matched across the two composition groups. The average body weight of all dogs is 29 kg and ranges from 25 to 35 kg. The 0 mg/kg composition is fed as a nutritionally-balanced control composition (Eukanuba Senior Maintenance Formula) and it contains no mannoheptulose, avocado extract or avocado meal. The 2 mg/kg composition is the nutritionally-balanced control composition formulated to contain avocado extract to provide mannoheptulose at a dose of 2 mg/kg of body weight of the dog. The amount of composition offered to the dogs is based on feeding guidelines for the control composition and the target weight range and body condition of the dogs. Dogs are fed one-half their daily allotment of composition at 0730 and the remaining half at 1330. Dogs 1, 2, 3, 4 and 5 are fed the composition containing 2 mg/kg mannoheptulose and dogs 6, 7, 8, 9 and 10 are fed the composition containing 0 mg/kg mannoheptulose. Pharmacokinetics of mannoheptulose following twice daily administration of mannoheptulose in a nutritionally-balanced composition is determined by collecting serial blood samples (3 mL) from each dog using a Vacutainer blood collection system and jugular venipuncture. […] Plasma mannoheptulose concentrations are measured using high-performance liquid chromatography tandem mass spectrometry as described herein below.
A one-compartment model is used to calculate mannoheptulose pharmacokinetics based on plasma mannoheptulose levels following twice daily oral administration of mannoheptulose in a nutritionally-balanced composition (PV(t)). The model is: PV(t)=dose/(a·BW)e^−kt where: a=mannoheptulose pool size (dose/(enrichment at to)), BW=body weight, k=rate constant of elimination (In Et−1n E0)/−t, and t=time.
High performance liquid chromatography tandem mass spectrometry (HPLC/MS/MS) is utilized to determine the amount of mannoheptulose present in the plasma of adult dogs. D-mannoheptulose and its chemical analog internal standard (D7-glucose) are isolated from dog plasma by a protein precipitation procedure (described herein below) using a 96-well format. The analyte and internal standard are subjected to reverse-phase high performance liquid chromatographic (HPLC) analysis on a polymeric amino column (2.1×150 mm, 5-μm particles). Detection and quantitation is by mass spectrometry (MS) operating under multiple reaction monitoring MS/MS conditions. Concentrations of D-mannoheptulose in dog plasma can be quantitated from approximately 20 to 5000 ng/mL. The assay requires a 0.1 mL aliquot of dog plasma harvested from a Na2EDTA anti-coagulant blood collection tube. Specimen concentrations are determined by back-calculation using a weighted (1/x^2) linear regression of a calibration curve generated from prepared D-mannoheptulose calibration standards.

[11] = rats, cited from earlier work
[12] = test system: fruit flies and/or nematodes; experiment: Lifespan of fruit flies and/or nematodes fed mannoheptulose; type: in vivo
Excerpt: (§4) Both of these endpoints are closely related to altered glucose and/or carbohydrate metabolism, similar to that elicited by dietary caloric restriction.

[13] = cited from earlier work
[14] = test system: older Labrador Retrievers; experiment: ADL-Table (jumping onto table platforms) of older dogs; type: in vivo, Labrador Retriever dogs; conditions: 2 mg/kg, across all four quarters
Protocol: as §1, §2, §3

[15] = test system: mice; experiment: Mice fed a diet containing mannoheptulose; type: in vivo
Excerpt: as §4

[16] = twice daily, after the afternoon meal
[17] = twice daily, after the morning meal

Question: With `OC[C@H]1O[C@H](CO)[C@@H](O)[C@@H]1O` [2,5-Anhydro-D-mannitol, 2,5-anhydro-D-mannitol] as the compound, how does the “glucose formation and utilization” value [1] read?
Answer: The value was “interfere in glucose formation and utilization”.

Question: What does the source list for `O=CC[C@@H](O)[C@H](O)[C@H](O)CO` [2-deoxy-D-glucose]?
Answer: metabolic hallmarks of caloric restriction (reduced body temperature, weight loss, lower fasting insulin levels) [2]: can mimic some of the major metabolic hallmarks of caloric restriction; side effects and toxicity [3]: significant untoward side effects and toxicity have been observed

Question: For `CO[C@@H]([C@H](O)[C@H](O)CO)[C@@H](O)C=O` [3-O-methylglucose], which “metabolism of the glucose analog” value [4] is on record?
Answer: Its value is “not metabolized”.

Question: And the “responses to administration compared with 2-deoxyglucose” value [5]?
Answer: Its value is “about seven times weaker”.

Question: Which “5-thioglucose excreted unchanged in urine” value [6] does the source give for `O=C[C@H](O)[C@@H](O)[C@H](O)[C@H](S)CO` [5-Thioglucose, 5-thio-D-glucose] here?
Answer: The value was 97%.

Question: And the LD50 [7]?
Answer: The LD50 was 14000 mg/kg.

Question: Which results are given for `O=C(CO)[C@@H](O)[C@@H](O)[C@H](O)[C@H](O)CO` [mannoheptulose]?
Answer: response of plasma mannoheptulose levels to dietary mannoheptulose levels ([8]; 0, 1, 2 mg/kg): dose-dependent manner; time for plasma mannoheptulose to return to non-detectable levels ([8]; after consumption of the single daily meal): ≤ 24 h; half-life ([8]; male, Labrador Retriever, dog, plasma, once daily oral, 2 mg/kg, mathematical modeling): 6.25 h; turnover time ([8]; once daily oral, 2 mg/kg, mathematical modeling): 9.0 h; order of plasma kinetics ([8]; once daily oral, 1 or 2 mg/kg): first order kinetics; percentage of older dogs successfully jumping heights vs composition devoid of mannoheptulose [9]: a greater percentage of older dogs are able to successfully jump all heights; half-life [10, 16]: 5.63 h; half-life [10, 17]: 5.42 h; order of plasma kinetics ([10]; twice daily oral): first order kinetics; return of plasma mannoheptulose to undetectable levels ([10]; twice daily): by the following morning; turnover time [10, 16]: 3.90 h; turnover time [10, 17]: 7.8 h; time to second peak in plasma mannoheptulose after afternoon meal ([10]; twice daily, afternoon meal): 4 h; time to peak plasma mannoheptulose levels after initial feeding ([10]; twice daily, morning meal): 4 h; injected mannoheptulose remained in the body ([11]; a day after the injection): 5%; injected mannoheptulose excreted unchanged ([11]; injection): 66%; injected mannoheptulose metabolized ([11]; injection): 29%; lifespan extension [12]: ~50%; mannoheptulose ingested appearing in urine ([13]; after oral administration): About 5%; safety of oral administration ([13]; humans, doses of 10 grams, orally): safely administered; percentage of older dogs successfully jumping onto platforms vs composition devoid of mannoheptulose [14]: a greater percentage of older dogs can successfully jump onto platforms that are 70, 80, 90 and 100% of their shoulder height; body weight [15]: slightly reduced body weight; plasma insulin levels [15]: reduced plasma insulin levels
